The experiment addresses T1, cytosolic phospholipase A2 (cPLA2) (Homo sapiens, UniProt P47712).
T1 construct: gene PLA2G4A
T1 sequence (P47712 1-749): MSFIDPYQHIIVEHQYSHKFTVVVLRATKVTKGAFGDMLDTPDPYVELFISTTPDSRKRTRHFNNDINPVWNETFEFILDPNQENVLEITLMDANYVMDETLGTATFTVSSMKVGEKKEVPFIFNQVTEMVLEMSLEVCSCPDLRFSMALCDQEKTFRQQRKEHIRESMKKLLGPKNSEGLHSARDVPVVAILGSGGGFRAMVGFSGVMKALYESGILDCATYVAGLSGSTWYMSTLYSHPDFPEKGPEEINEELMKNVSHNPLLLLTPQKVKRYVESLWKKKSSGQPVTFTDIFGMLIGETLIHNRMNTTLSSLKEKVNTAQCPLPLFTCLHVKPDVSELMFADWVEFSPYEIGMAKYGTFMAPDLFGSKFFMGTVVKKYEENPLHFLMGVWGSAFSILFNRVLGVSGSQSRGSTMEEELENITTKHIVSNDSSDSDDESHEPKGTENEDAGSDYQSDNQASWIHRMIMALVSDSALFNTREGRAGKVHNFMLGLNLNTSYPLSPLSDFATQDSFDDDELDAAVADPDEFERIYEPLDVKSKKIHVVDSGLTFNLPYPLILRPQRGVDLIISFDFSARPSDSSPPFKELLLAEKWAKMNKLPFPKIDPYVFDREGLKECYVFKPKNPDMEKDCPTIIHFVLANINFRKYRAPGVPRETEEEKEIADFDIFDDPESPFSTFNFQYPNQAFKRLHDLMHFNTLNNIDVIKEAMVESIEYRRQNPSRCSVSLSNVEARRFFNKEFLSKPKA
Kind of experiment: recombinant cPLA2 enzymatic assay (Cayman cPLA2 assay kit). The experiment is classed as biochemical.

SMILES strings stand for the structures.

Turning to `C[C@@H]1OC(c2c(O)cc(O)c3c(=O)cc(-c4ccc(O)cc4)oc23)[C@H](O)[C@H](O)[C@H]1O` (stereo partly shown) [8CR, 8-C-rhamnosyl apigenin], the IC50 amounted to 134 µM.

Usually IC50 stands for the concentration at which inhibition is half-maximal.

The record behind these values is paper PMC5618621, “Non-Clinical Studies for Evaluation of 8-C-Rhamnosyl Apigenin Purified from Peperomia obtusifolia against Acute Edema” (International Journal of Molecular Sciences, 2017).
